Legend:
[1] = target: T1, mouse DGAT1 (Mus musculus, UniProt Q9Z2A7); experiment: DGAT1 inhibitory effect test (microsome fraction, [14C]-oleoyl-CoA, triglyceride radioactivity by TLC); assay type: biochemical; conditions: 0.5 h; concentration of the test compound 0.1 μg/ml; mouse DGAT1 microsomes, 23° C., 30 minutes; read-out: Inhibitory ratio
T1 construct: made in house; host or cells: insect cells (High Five, Sf9, Sf21, etc.), baculovirus expression system (Invitrogen)
T1 sequence (Q9Z2A7 1-498): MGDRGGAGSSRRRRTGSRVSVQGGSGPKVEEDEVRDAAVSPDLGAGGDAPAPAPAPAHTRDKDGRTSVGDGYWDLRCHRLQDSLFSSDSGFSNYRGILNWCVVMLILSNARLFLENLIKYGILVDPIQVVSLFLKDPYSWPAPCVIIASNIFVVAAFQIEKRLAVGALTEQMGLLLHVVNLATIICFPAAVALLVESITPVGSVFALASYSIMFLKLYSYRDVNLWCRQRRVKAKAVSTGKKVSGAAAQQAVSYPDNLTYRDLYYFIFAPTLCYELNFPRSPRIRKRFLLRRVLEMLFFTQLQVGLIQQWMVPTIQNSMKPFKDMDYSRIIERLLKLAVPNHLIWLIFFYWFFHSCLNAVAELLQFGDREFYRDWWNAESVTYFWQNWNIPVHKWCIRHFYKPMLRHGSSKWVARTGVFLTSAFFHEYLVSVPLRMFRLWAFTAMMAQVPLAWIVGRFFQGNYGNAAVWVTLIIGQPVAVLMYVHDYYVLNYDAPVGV
How it was run: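 Inhibition was scored from radiolabelled triglyceride separated by TLC, relative to vehicle and net of a 0-min background. The reaction ran for 30 min at room temperature (23 °C) in Tris-HCl pH 8.0 with MgCl2, BSA and Triton X-100. Substrates were 30 μM [14C]-oleoyl-CoA and 0.5 mM dioleoylglycerol, with mouse DGAT1 microsomes from baculovirus-infected insect cells as enzyme.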

| Compound | melting point | inhibition at 0.1 µg/mL [1] [%] |
| --- | --- | --- |
| COc1ccc(C)cc1NC(=O)Nc1ccc(N2CCN(C(=O)Nc3ccc(F)cc3C)CC2)cc1 [Example 172, 4-{4-[3-(2-methoxy-5-methyl-phenyl)-ureido]-phenyl}-piperazine-1-carboxylic acid (4-fluoro-2-methyl-phenyl)-amide] | > 270 °C (dec.) | ≥ 50 |
| COc1ccc(C)cc1NC(=O)Nc1ccc(N2CCN(C(=O)Nc3ccc(NC(C)=O)cc3C(F)(F)F)CC2)cc1 [Example 173, 4-{4-[3-(2-methoxy-5-methyl-phenyl)-ureido]-phenyl}-piperazine-1-carboxylic acid (4-acetylamino-2-trifluoromethyl-phenyl)-amide] | 152 to 154 °C | ≥ 50 |
| COc1ccc(C)cc1NC(=O)Nc1ccc(N2CCN(C(=O)Nc3c(C)cc(Cl)cc3C)CC2)cc1 [Example 174, 4-{4-[3-(2-methoxy-5-methyl-phenyl)-ureido]-phenyl}-piperazine-1-carboxylic acid (4-chloro-2,6-dimethyl-phenyl)-amide] | 238 to 240 °C | ≥ 50 |
| COc1ccc(NC(=O)N2CCN(c3ccc(NC(=O)Nc4cc(C)ccc4OC)cc3)CC2)c(C(F)(F)F)c1 [Example 175, 4-{4-[3-(2-methoxy-5-methyl-phenyl)-ureido]-phenyl}-piperazine-1-carboxylic acid (4-methoxy-2-trifluoromethyl-phenyl)-amide] | 245 to 247 °C | ≥ 50 |
| COc1ccc(C)cc1NC(=O)Nc1ccc(N2CCN(C(=O)Nc3c(C)cccc3Br)CC2)cc1 [Example 177, 4-{4-[3-(2-methoxy-5-methyl-phenyl)-ureido]-phenyl}-piperazine-1-carboxylic acid (2-bromo-6-methyl-phenyl)-amide] | 221 to 222 °C | ≥ 50 |
| COc1ccc(C)cc1NC(=O)Nc1ccc(N2CCN(C(=O)Nc3ccc(C(C)C)cc3C(F)(F)F)CC2)cc1 [Example 178, 4-{4-[3-(2-methoxy-5-methyl-phenyl)-ureido]-phenyl}-piperazine-1-carboxylic acid (4-isopropyl-2-trifluoromethyl-phenyl)-amide] | 134 to 135 °C | ≥ 50 |
| COc1ccc(C)cc1NC(=O)Nc1ccc(N2CCN(C(=O)Nc3c(C)cccc3C(=O)O)CC2)cc1 [Example 179, 2-[(4-{4-[3-(2-methoxy-5-methyl-phenyl)-ureido]-phenyl}-piperazine-1-carbonyl)-amino]-3-methyl-benzoic acid] | 159 to 160 °C | ≥ 50 |
| COc1ccc(C)cc1NC(=O)Nc1ccc(N2CCN(C(=O)Nc3ccc(C(=O)O)cc3C)CC2)cc1 [Example 180, 4-[(4-{4-[3-(2-methoxy-5-methyl-phenyl)-ureido]-phenyl}-piperazine-1-carbonyl)-amino]-3-methyl-benzoic acid] | 178 to 180 °C | ≥ 50 |
| COc1ccc(C)cc1NC(=O)Nc1ccc(N2CCN(C(=O)Nc3ccc(C(=O)O)cc3Cl)CC2)cc1 [Example 181, 3-chloro-4-[(4-{4-[3-(2-methoxy-5-methyl-phenyl)-ureido]-phenyl}-piperazine-1-carbonyl)-amino]-benzoic acid] | 209 to 221 °C | ≥ 50 |
| CCOc1ccccc1NC(=O)Nc1ccc(N2CCN(C(=O)Nc3c(C)cccc3OC)CC2)cc1 [Example 183, 4-{4-[3-(2-ethoxy-phenyl)-ureido]-phenyl}-piperazine-1-carboxylic acid (2-methoxy-6-methyl-phenyl)-amide] | 169 to 171 °C | ≥ 50 |
| CCOc1ccc(C)cc1NC(=O)Nc1ccc(N2CCN(C(=O)Nc3c(C)cccc3OC)CC2)cc1 [Example 184, 4-{4-[3-(2-ethoxy-5-methyl-phenyl)-ureido]-phenyl}-piperazine-1-carboxylic acid (2-methoxy-6-methyl-phenyl)-amide] | 142 to 144 °C | ≥ 50 |
| COc1ccc(C)cc1NC(=O)Nc1ccc(N2CCN(C(=O)Nc3c(C)cccc3CO)CC2)cc1 [Example 185, 4-{4-[3-(2-methoxy-5-methyl-phenyl)-ureido]-phenyl}-piperazine-1-carboxylic acid (2-hydroxymethyl-6-methyl-phenyl)-amide] | 192 to 194 °C | ≥ 50 |
| COc1ccc(C)cc1NC(=O)Nc1ccc(N2CCN(C(=O)Nc3c(C)cccc3OC)CC2)nc1 [Example 186, 4-{5-[3-(2-methoxy-5-methyl-phenyl)-ureido]-pyridin-2-yl}-piperazine-1-carboxylic acid (2-methoxy-6-methyl-phenyl)-amide] | 198 to 200 °C | ≥ 50 |
| CCOc1ccccc1NC(=O)Nc1ccc(N2CCN(C(=O)Nc3c(C)cccc3OC)CC2)nc1 [Example 187, 4-{5-[3-(2-ethoxy-phenyl)-ureido]-pyridin-2-yl}-piperazine-1-carboxylic acid (2-methoxy-6-methyl-phenyl)-amide] | 129 to 130 °C | ≥ 50 |
| COc1ccc(C)cc1NC(=O)Nc1ccc(N2CCN(C(=O)Nc3ccc(NC(C)=O)cc3C(F)(F)F)CC2)nc1 [Example 188, 4-{5-[3-(2-methoxy-5-methyl-phenyl)-ureido]-pyridin-2-yl}-piperazine-1-carboxylic acid (4-acetylamino-2-trifluoromethyl-phenyl)-amide] | 175 to 177 °C | ≥ 50 |
| COc1ccc(C)cc1NC(=O)Nc1ccc(N2CCN(C(=O)Cc3c(F)cccc3F)CC2)cc1 [Example 192, 1-(4-{4-[2-(2,6-difluoro-phenyl)-acetyl]-piperazin-1-yl}phenyl)-3-(2-methoxy-5-methyl-phenyl)-urea] | 213 to 215 °C | ≥ 50 |
| COc1ccc(C)cc1NC(=O)Nc1ccc(N2CCN(C(=O)Oc3c(C)cccc3Cl)CC2)cc1 [Example 197, 4-{4-[3-(2-methoxy-5-methyl-phenyl)-ureido]-phenyl}-piperazine-1-carboxylic acid 2-chloro-6-methyl-phenyl ester] | 146 to 148 °C | ≥ 50 |
| COc1ccc(C)cc1NC(=O)Nc1ccc(N2CCN(C(=O)Nc3c(C)cccc3Cl)C(C)C2)cc1 (centres unmarked) [Example 198, 4-{4-[3-(2-methoxy-5-methyl-phenyl)-ureido]-phenyl}-2-methyl-piperazine-1-carboxylic acid (2-chloro-6-methyl-phenyl)-amide] | 161 to 163 °C | ≥ 50 |
| COc1ccc(C)cc1NC(=O)Nc1ccc(N2CCN(C(=O)Nc3c(C)cccc3C)C(C)C2)cc1 (centres unmarked) [Example 199, 4-{4-[3-(2-methoxy-5-methyl-phenyl)-ureido]-phenyl}-2-methyl-piperazine-1-carboxylic acid (2,6-dimethyl-phenyl)-amide] | 204 to 206 °C | ≥ 50 |
| COc1ccc(C)cc1NC(=O)Nc1ccc(N2CCCN(C(=O)Nc3c(C)cccc3Cl)CC2)cc1 [Example 200, 4-{4-[3-(2-methoxy-5-methyl-phenyl)-ureido]-phenyl}-perhydro-1,4-diazepine-1-carboxylic acid (2-chloro-6-methyl-phenyl)-amide] | > 240 °C (dec.) | ≥ 50 |
| COc1ccc(C)cc1NC(=O)Nc1ccc(N2CCCN(C(=O)Nc3c(C)cccc3C)CC2)cc1 [Example 201, 4-{4-[3-(2-methoxy-5-methyl-phenyl)-ureido]-phenyl}-perhydro-1,4-diazepine-1-carboxylic acid (2,6-dimethyl-phenyl)-amide] | > 240 °C (dec.) | ≥ 50 |
| CCCCCCNC(=O)Nc1ccc(N2CCN(C(=O)Nc3c(C)cccc3Cl)CC2)cc1 [Example 206, 4-[4-(3-hexyl-ureido)-phenyl]-piperazine-1-carboxylic acid (2-chloro-6-methyl-phenyl)-amide] | 206 to 210 °C | ≥ 50 |
| Cc1cccc(Cl)c1NC(=O)N1CCN(c2ccc(NC(=O)NC3CCCCC3)cc2)CC1 [Example 207, 4-[4-(3-cyclohexyl-ureido)-phenyl]-piperazine-1-carboxylic acid (2-chloro-6-methyl-phenyl)-amide] | > 260 °C (dec.) | ≥ 50 |
| COc1ccc(C)cc1NC(=O)Nc1ccc(N2CCN(C(=O)Nc3ccc(OCCO)cc3C)CC2)cc1 [Example 208, 4-{4-[3-(2-methoxy-5-methyl-phenyl)-ureido]-phenyl}-piperazine-1-carboxylic acid [4-(2-hydroxy-ethoxy)-2-methyl-phenyl]-amide] | 174 to 176 °C | ≥ 50 |
| COc1ccc(C)cc1NC(=O)Nc1ccc(N2CCN(C(=O)Nc3ccc(OCCO)cc3C(F)(F)F)CC2)cc1 [Example 209, 4-{4-[3-(2-methoxy-5-methyl-phenyl)-ureido]-phenyl}-piperazine-1-carboxylic acid [4-(2-hydroxy-ethoxy)-2-trifluoromethyl-phenyl]-amide] | 175 to 177 °C | ≥ 50 |

— patent US20070249620A1, “Urea Derivative” (priority 2004, published 2007)
